The source of these data is article PMC2748089, “Bactericidal activities of the cationic steroid CSA-13 and the cathelicidin peptide LL-37 against Helicobacter pylori in simulated gastric juice” (BMC Microbiology, 2009).

The subject of data set [1] is H. pylori. The data set can be described thus: MIC of conventional antibiotics against H. pylori on Muller-Hinton agar. It is filed as cell-based, Helicobacter pylori. The following applies: for MIC: Helicobacter pylori; for Susceptibility classification by MIC: all H. pylori isolates, resistant when MIC above 4 μg/ml for AMX, 16 μg/ml for TET.
For data set [2], the system named is human red blood cells. The method, then: (§1) Figure 5 Evaluation of cell toxicity. Hemoglobin and LDH release from human red blood cells and human gastric adenocarcinoma cells (panel A and B respectively) after addition of LL-37 (circles), WLBU2 (diamonds), and CSA-13 (triangles), followed by incubation for 1 h at 37°C. Data shown are means ± SD of three experiments. Morphology of human gastric adenocarcinoma cells before (control) and after LL-37, WLBU2 and CSA-13 treatment was evaluated by phase-contrast microscopy (panel C). Data from one representative experiment are shown.
The hemolytic activity of LL-37, WLBU-2 and CSA-13 (0-200 μg/ml), against human red blood cells (RBC) was tested using erythrocytes suspended in PBS. RBC prepared from fresh blood (Hematocrit ~5%) were incubated for 1 h at 37°C after addition of test molecules. Relative hemoglobin concentration in supernatants after centrifugation at 2000 × g was monitored by measuring the absorbance at 540 nm. 100% hemolysis was taken from samples in which 2% Triton X-100 was added.

In data set [3] the test system is drug-resistant bacteria. The conditions noted are these: previous susceptibility study; cited from earlier work.
Data set [4] has as its system H. pylori. The following applies: for Change of MBC on addition of 2 mM MgCl2: HEPES buffer with 2 mM MgCl2 versus HEPES, data not shown.
The test system of data set [5] is Escherichia coli MG1655. The data set can be described thus: Bacteria killing assay after pre-incubation in simulated gastric juice, or with mucin or bile. The conditions noted are these: E. coli MG1655, CFU count; for Antibacterial activity after pre-incubation at pH ~1.5 in the presence of pepsin: 3 h pre-incubation at 37°C in simulated gastric juice pH ~1.5 with pepsin 0.5 mg/ml; for Antibacterial activity after pre-incubation at pH ~1.5 in the presence of pepsin / Antibacterial activity after pre-incubation at pH ~1.5: versus PBS pH 7.4, pH adjusted to 7.4 before 1 h killing assay, means of three to four experiments; for Antibacterial activity after pre-incubation at pH ~1.5: 3 h pre-incubation at 37°C in simulated gastric juice pH ~1.5 without pepsin.

Data set [6] deals with Human gastric adenocarcinoma cells (ATCC; CRL-1739). The following applies: 10 μg/ml, 1 hour; phase-contrast microscopy. Here is the method: as §1
Human gastric adenocarcinoma cells (ATCC; CRL-1739) were maintained in DMEM (BioWhittaker) culture supplemented with 10% heat-inactivated fetal bovine serum (Hyclone) at 37°C and 5% CO2. For LDH release assay and microscope evaluation cells were plated in 24 well plates and grown to confluence. In all experiments, the medium was changed to serum-free media ~12 h prior to cell treatment with LL-37, WLBU2 and CSA-13 (0-200 μg/ml) in individual wells, for 1 hour. Cell culture medium was then collected, centrifuged (10 mins, 5000 rpm, RT) and subjected to LDH evaluation (LDH-cytotoxicity Assay Kit; BioVision Inc.)

Data set [7] has the same test system. The experiment in a line: LDH release from gastric adenocarcinoma cells. It is filed as cell-based. The following applies: bactericidal concentrations against H. pylori and E. coli MG1655 in saline and nutrient containing buffer. An excerpt: Figure 5 Evaluation of cell toxicity. […] Data shown are means ± SD of three experiments. […] Data from one representative experiment are shown.
(LDH in the medium is a marker of cell lysis.)

For data set [8], the target named is pepsin (Sus scrofa, UniProt P00791). The data set can be described thus: LC-MS analytical characterization after incubation with pepsin at low pH. The conditions noted are these: 3 h incubation with pepsin 0.5 mg/ml at pH ~1.5, 37°C; LC-MS (C18, ESI positive); data from one experiment.
Procedure: The total ion chromatogram (TIC) is presented for each sample condition with an inset mass-to-charge (m/z) spectra showing intensity for the boxed TIC peaks. The molecular weight of intact LL-37 is 4494, which can be observed with multiple charges (m/z = 4 MW = 1124, m/z = 5 MW = 900, etc) in positive ion mode. The molecular weight of CSA13 is 678, which can be observed directly and with multiple charges. Data from one experiment are shown.
Analytical characterization was performed on the CSA-13 and LL-37 suspensions after 3H incubation with pepsin (0.5 mg/ml) at low pH (~1,5) at 37°C, using the Shimadzu (Columbia, MD) instrument (the LC-MS system consisted of a LC-20AB solvent delivery system and SIL-20A auto-sampler coupled to dual wavelength UV-Vis detector and a LCMS 2010EV single quadrupole mass spectrometer), coupled to a Shimadzu Premier C18 column (150 mm × 4.6 mm i.d., 5 μm particle size). The mobile phase flow rate was 1 ml/min with a starting ratio of 90% mobile phase A (water) and 10% mobile phase B (acetonitrile) both with 0.1% (v/v) formic acid. The analytical method consisted of the following steps: (i) sample injection and holding at 10% B for 5 min, (ii) linear gradient from 10% to 90% B over 15 minutes, (iii) holding at 90% B for 5 minutes, (iv) isocratic step to 10% B and holding for 5 minutes prior to the next sample injection. […]
The mark [9] stands for this setting: 96 h, H. pylori clinical strain 1, Muller-Hinton agar with 5% sheep blood, 4 days at 35°C, microaerophilic, read-out: MIC.
The mark [10] stands for this setting: 96 h, H. pylori clinical strain 2, Muller-Hinton agar with 5% sheep blood, 4 days at 35°C, microaerophilic, read-out: MIC.
Where [11] appears, read: 96 h, H. pylori clinical strain 3, Muller-Hinton agar with 5% sheep blood, 4 days at 35°C, microaerophilic, read-out: MIC.
Setting [12] is: 96 h, H. pylori clinical strain 4, Muller-Hinton agar with 5% sheep blood, 4 days at 35°C, microaerophilic, read-out: MIC.
[13] abbreviates: 96 h, H. pylori clinical strain 5, Muller-Hinton agar with 5% sheep blood, 4 days at 35°C, microaerophilic, read-out: MIC.
The mark [14] stands for this setting: 96 h, H. pylori clinical strain 6, Muller-Hinton agar with 5% sheep blood, 4 days at 35°C, microaerophilic, read-out: MIC.
Setting [15] is: 96 h, H. pylori clinical strain 7, Muller-Hinton agar with 5% sheep blood, 4 days at 35°C, microaerophilic, read-out: MIC.
Where [16] appears, read: H. pylori clinical strains 5, 6, 7, resistant when MIC above 1 μg/ml for CLR, 16 μg/ml for Metronidazole.
The mark [17] stands for this setting: HEPES buffer, 6 hours incubation at 37°C, inoculum 10^8 CFU/ml, all isolated strains of H. pylori.

Like-named read-outs stand apart in the source and are kept apart here. Ends that are not written are not given here.

Chain of pepsin (P00791 60-385): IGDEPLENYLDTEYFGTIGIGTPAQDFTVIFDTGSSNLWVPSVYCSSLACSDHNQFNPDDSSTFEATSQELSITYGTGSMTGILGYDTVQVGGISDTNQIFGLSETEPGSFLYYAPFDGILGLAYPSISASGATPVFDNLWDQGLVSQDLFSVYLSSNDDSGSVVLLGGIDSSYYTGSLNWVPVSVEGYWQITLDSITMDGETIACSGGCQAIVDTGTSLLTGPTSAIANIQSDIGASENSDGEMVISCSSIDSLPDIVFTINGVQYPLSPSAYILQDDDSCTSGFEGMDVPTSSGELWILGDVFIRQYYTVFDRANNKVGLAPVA

In general, MIC refers to the lowest concentration found to suppress growth. Turning to `CC1(C)S[C@@H]2[C@H](NC(=O)[C@H](N)c3ccc(O)cc3)C(=O)N2[C@H]1C(=O)O` [AMX, Amoxicillin], the minimum inhibitory concentration (MIC) was 0.094 µg/mL in data set [1] (setting [9]); below 0.016 µg/mL in data set [1] (setting [10]); 0.016 µg/mL in data set [1] (setting [11]); 0.032 µg/mL in data set [1] (setting [12]); 0.25 µg/mL in data set [1] (setting [13]); 0.032 µg/mL in data set [1] (setting [14]). Also, the MIC in data set [1] (setting [15]) stood at 0.047 µg/mL; in data set [1] (ATCC43504, 96 h, read-out: MIC), 0.016 µg/mL. Further, the “Susceptibility classification by MIC” value in data set [1] is on record as “susceptible”.
For `CC[C@H]1OC(=O)[C@H](C)[C@@H](O[C@H]2C[C@@](C)(OC)[C@@H](O)[C@H](C)O2)[C@H](C)[C@@H](O[C@@H]2O[C@H](C)C[C@H](N(C)C)[C@H]2O)[C@](C)(OC)C[C@@H](C)C(=O)[C@H](C)[C@@H](O)[C@]1(C)O` [CLR, clarithromycin], in data set [1] (setting [16]), the “Resistance classification by MIC” value is recorded as “resistant”. The MIC in data set [1] (96 h) was determined as 0.125 µg/mL; in data set [1] (setting [10]), 0.19 µg/mL; in data set [1] (setting [11]) it was 0.25 µg/mL; in data set [1] (setting [12]) it was 0.047 µg/mL; in data set [1] (setting [13]) it was 64 µg/mL; in data set [1] (setting [14]) it was 1.5 µg/mL. The MIC in data set [1] (setting [15]) is 1.5 µg/mL; in data set [1] (ATCC43504, 96 h, read-out: MIC) it was 0.094 µg/mL.
For `CCCCCCCCNCCC[C@@H](C)[C@H]1CC[C@H]2[C@@H]3[C@H](OCCCN)C[C@@H]4C[C@H](OCCCN)CC[C@]4(C)[C@H]3C[C@H](OCCCN)[C@]12C` [CSA-13], the “Bactericidal concentrations relative to minimal hemolytic concentration” value in data set [2] (bactericidal concentrations against H. pylori and E. coli MG1655 in saline and nutrient containing buffer) was “below its minimal hemolytic concentration”. Also, in data set [3], the MIC50/MBC50 ratio is on record as 1. In addition, the “average MBC” value in data set [4] worked out at 2.98 ± 3.11 µg/mL. Besides, the “MBC after pre-incubation with buffer at low pH containing pepsin or mucin” value in data set [4] (H. pylori ATCC 43504, 1 h pre-incubation at 37°C in simulated gastric juice pH ~1.5 with pepsin or mucin) was “nearly unchanged”. In addition, the “Change of MBC on addition of 2 mM MgCl2” value in data set [4] (H. pylori ATCC 43504) is “four fold increase”. Besides, in data set [4] (setting [17]), the “average MBC” value was 0.31 ± 0.25 µg/mL. For the same molecule, the “MBC (minimum bactericidal concentration), range over strains” value in data set [4] (nutrient-containing media, clinical isolates of H. pylori) was 0.275 to 8.9 µg/mL. For the same molecule, in data set [5], the “Antibacterial activity after pre-incubation at pH ~1.5 in the presence of pepsin” value is “unchanged” and the “Antibacterial activity after pre-incubation at pH ~1.5” value is “unchanged”. Moreover, the “Bactericidal activity in the presence of purified gastric mucin” value in data set [5] (mucin 1000 μg/ml, 1 h killing assay at 37°C) is given as “less inhibited by mucin”. In data set [6], the “Adenocarcinoma cell morphology versus control cells” value was “no visible difference”. In data set [7], the “Bactericidal concentrations relative to concentrations causing dysfunction of adenocarcinoma cell membranes” value is listed as “below concentrations causing dysfunction of adenocarcinoma cell membranes”. The “Stability to pepsin at low pH (mass spectrometry analysis)” value in data set [8] is listed as “not changed”.
As for `CC[C@H](C)[C@H](NC(=O)[C@H](CCCCN)NC(=O)[C@H](CCC(=O)O)NC(=O)[C@H](CCCCN)NC(=O)[C@H](CO)NC(=O)[C@H](CCCCN)NC(=O)[C@H](CCCNC(=N)N)NC(=O)[C@H](Cc1ccccc1)NC(=O)[C@H](Cc1ccccc1)NC(=O)[C@H](CC(=O)O)NC(=O)CNC(=O)[C@H](CC(C)C)NC(=O)[C@@H](N)CC(C)C)C(=O)NCC(=O)N[C@@H](CCCCN)C(=O)N[C@@H](CCC(=O)O)C(=O)N[C@@H](Cc1ccccc1)C(=O)N[C@@H](CCCCN)C(=O)N[C@@H](CCCNC(=N)N)C(=O)N[C@H](C(=O)N[C@H](C(=O)N[C@@H](CCC(N)=O)C(=O)N[C@@H](CCCNC(=N)N)C(=O)N[C@H](C(=O)N[C@@H](CCCCN)C(=O)N[C@@H](CC(=O)O)C(=O)N[C@@H](Cc1ccccc1)C(=O)N[C@@H](CC(C)C)C(=O)N[C@@H](CCCNC(=N)N)C(=O)N[C@@H](CC(N)=O)C(=O)N[C@@H](CC(C)C)C(=O)N[C@H](C(=O)N1CCC[C@H]1C(=O)N[C@@H](CCCNC(=N)N)C(=O)N[C@H](C(=O)N[C@@H](CCC(=O)O)C(=O)N[C@@H](CO)C(=O)O)[C@@H](C)O)C(C)C)[C@@H](C)CC)C(C)C)[C@@H](C)CC` [LL-37], the “average MBC” value in data set [4] (6 h) was determined as 300 ± 232 µg/mL; in data set [4] (setting [17]) it was 8.9 ± 4.03 µg/mL. Further, the “Antibacterial activity after pre-incubation at pH ~1.5 in the presence of pepsin” value in data set [5] is “lost”. Moreover, in data set [6], the “Adenocarcinoma cell morphology versus control cells” value is recorded as “no visible difference”. Moreover, the “Stability to pepsin at low pH (mass spectrometry analysis)” value in data set [8] is given as “extensive degradation”.
Regarding `Cc1ncc([N+](=O)[O-])n1CCO` [Metronidazole, metronidazole], the “Resistance classification by MIC” value in data set [1] (H. pylori clinical strain 4, resistant when MIC above 16 μg/ml for Metronidazole) is recorded as “resistant”; in data set [1] (setting [16]), “resistant”. Besides, the minimum inhibitory concentration (MIC) came out at 0.19 µg/mL in data set [1] (setting [9]); 0.094 µg/mL in data set [1] (setting [10]); 0.5 µg/mL in data set [1] (setting [11]); 32 µg/mL in data set [1] (setting [12]); 96 µg/mL in data set [1] (setting [13]); 32 µg/mL in data set [1] (setting [14]). The minimum inhibitory concentration (MIC) came out at 48 µg/mL in data set [1] (setting [15]) and 64 µg/mL in data set [1] (ATCC43504, 96 h, read-out: MIC).
Regarding `CN(C)[C@@H]1C(O)=C(C(N)=O)C(=O)[C@@]2(O)C(O)=C3C(=O)c4c(O)cccc4[C@@](C)(O)[C@H]3C[C@@H]12` [TET, tetracycline], the “Susceptibility classification by MIC” value in data set [1] is given as “susceptible”.
Regarding RRWVRRVRRWVRRVVRVVRRWVRR [WLBU2], the “Hemoglobin release from human red blood cells” value in data set [2] (RBC in PBS, hematocrit ~5%, 0-200 μg/ml, 1 h at 37°C, absorbance at 540 nm, 100% = 2% Triton X-100, means of three experiments) was “strongest hemolytic agent”. In addition, the “Change of MBC on addition of 2 mM MgCl2” value in data set [4] (H. pylori ATCC 43504) was “four fold increase”. The “Antibacterial activity after pre-incubation at pH ~1.5” value in data set [5] is “not significantly changed”. For the same molecule, in data set [6], the “Adenocarcinoma cell morphology versus control cells” value was “no visible difference”.
